Measured values taken from patent US20070059788A1, “Method and apparatus for electrically detecting an adverse effect of a toxic substance on procaryotic cells” (priority 2005, published 2007).

Legend:
Assay type in all cases: cell-based
E. coli BL21 cells [1] = assay: impedance (E′, E″) measurement of cells immobilized on an interdigit electrode chip
Procedure: After a suspension of E. coli BL21 cells (1×10^10 ells) was mixed with 1 ml of 1.5% agarose, 1 ul of the resulting mixture was laid and immobilized on the surface of a positive dielectrophoresis (“DEP”) 0 chip.
Subsequently, the cells-immobilized chip was soaked in 10 ml of 1 μM KCl solution and its initial dielectric permittivity (E′) and dielectric losses (E″) were measured. […] The chip was then taken out of the 10 ml of 1 μM KCl solution and washed with 1 μM KCl solution three times. After soaking the chip in 10 ml of 1 μM KCl solution, dielectric permittivity (E′) and dielectric losses (E″) were measured.
Control 2 is a case of treating only 1 μM KCl solution to the chip immobilized with E. coli cells, which represents the noise of prokaryotic cells themselves that varies with the passage of time.
In FIGS. 2A to 2C, Line b represents an initial impedance value measured after the cell immobilization, and Line a represents an impedance value measured after treating with a toxic substance or 1 μM KCl solution.

E. coli BL21 cells [2] = assay: colony counting of the cells-immobilized chip
Procedure: (§1) The optical detection method was performed using a Baclight™ Bacterial Membrane Potential Kit (commercially available from by Molecular Probes Inc., U.S.A.) for verification.

E. coli BL21 cells [3] = assay: optical detection of cell membrane potential (Baclight Bacterial Membrane Potential Kit)
Procedure: as §1

Molecule	reduction in the cell membrane's impedance (E′) signal (E. coli BL21 cells [1]; 20% ethanol (FIG. 2C))	adverse effect by colony counting (E. coli BL21 cells [2]; 20% ethanol)	reduction in the cell membrane potential measured by the optical method (E. coli BL21 cells [3]; 20% ethanol, compared with untreated control (FIG. 6))	reduction of impedance signal (E″) of the cell membrane (E. coli BL21 cells [1]; 5 μM CCCP, compared with the untreated control (FIG. 4C))	change in E′ and E″ signals over the initial impedance value (E. coli BL21 cells [1]; 5 μM CCCP, same method as Example 1)	adverse effect by colony counting (E. coli BL21 cells [2]; 5 μM CCCP versus untreated control (FIG. 5A))	reduction of cell membrane potential (E. coli BL21 cells [3]; 5 μM CCCP, compared with untreated control (FIG. 5B)) [%]
CCO [ethanol]	about 36%	difficult to measure an adverse effect	almost nothing	–	–	–	–
carbonyl cyanide m-chloropheoxyhydrazone [CCCP]	–	–	–	about 32%	significant reduction	difficult to measure an adverse effect	10
